Assay results published in patent US4317912A, “Tetracyclic indole derivatives” (Farmitalia Carlo Erba S.p.A., priority 1979, dated 1982).

How the values were obtained:
[1] = tested on: spontaneously hypertensive male rats, strain MHS; assay: Anti-hypertensive activity in spontaneously hypertensive rats (MHS), blood pressure and heart rate measured at the tail; type: in vivo, rat (spontaneously hypertensive; conditions: MHS rats; for Change in BP, 1st day, 1 hr after dose / Change in HR, 1st day, 1 hr after dose / Change in BP, 1st day, 5 hrs after dose / Change in HR, 1st day, 5 hrs after dose / Change in BP, 4th day, 1 hr after dose / Change in HR, 4th day, 1 hr after dose / Change in BP, 4th day, 5 hrs after dose / Change in HR, 4th day, 5 hrs after dose: mean of 4 animals
Method: Four spontaneously hypertensive male rats, strains MHS, weighing 250-300 g for each group were used.
The animals were treated for four consecutive days. Drugs were administered by gastric gavage, suspended in 5% arabic gum (0.2 ml/100 g body weight). Blood pressure (BP) and heart rate (HR) were measured at the tail by BP Recorder W+W. Blood pressure and heart rate were measured on the 1st and 4th day of treatment 1 hour before and 1 and 5 hours after drug administration.
*Data of LD50 from the literature. In Tables 1 and 2 are reported
the results of the study of the activity of compounds 355/1165 and
355/1166 upon the BP and HR (measured indirectly by means of a tail cuff)
of spontaneous hypertensive rats, MHS strain (4 rats each group). The
compounds were given orally, once a day for 4 consecutive days.

[2] = tested on: spontaneously hypertensive rats (Okamoto strain); assay: Anti-hypertensive activity in conscious spontaneously hypertensive rats (Okamoto), carotid artery catheter; type: in vivo, rat (spontaneously hypertensive; conditions: for Change in blood pressure after treatment, 30' / Change in heart rate after treatment, 30' / Change in blood pressure after treatment, 60' / Change in heart rate after treatment, 60' / Change in blood pressure after treatment, 120' / Change in heart rate after treatment, 120' / Change in blood pressure after treatment, 240' / Change in heart rate after treatment, 240' / Change in blood pressure after treatment, 360' / Change in heart rate after treatment, 360': mean of 6 animals; for Effect on heart rate: oral (Table 4)
Method: Blood pressure recordings were made in conscious hypertensive unrestrained rats weighing approximately 300 g, via a catheter cronically inserted into the left common carotid artery. Implantation of arterial cannula was made under sodium pentobarbital anesthesia (50 mg/kg i.p.). A 1 cm long incision was made through the previously shaved ventral surface of the neck and the tissues overlying the trachea parted by blunt dissection to reveal the carotid artery. The polyethylene catheter used was made with PE 50 tubing, previously filled with saline containing 250 I.U./ml heparin. The tip of the cannula was pushed at least 2 cm inside the vessel toward the heart. The cannula was then firmly tied and passed beneath the skin to emerge from a small incision in the back of the neck. During the postoperative period and before the start of each recording session, the cannula was flushed through daily with saline containing heparin (250 U.I./ml). The experiments were performed two days after surgery. Drugs were administered by gastric gavage.

[3] = Acute (orientative) oral toxicity in mice; conditions: mouse, in vivo
Excerpt: The male mice for each group were orally treated with drugs at different dose levels for the determination of orientative toxicity.

## CCOC(=O)C(C#N)CC1CN(C)C2Cc3c[nH]c4cccc(c34)CC12 (stereo not drawn) [355/1166, 2-Cyano-3-[trans-5(10→9)abeo-6-methyl-ergoline-8β]-propionic acid ethyl ester]
[1]; 5 mg/kg os, 1st day
  Change in BP, 1st day, 1 hr after dose: -8 mmHg
  Change in HR, 1st day, 1 hr after dose: -25 b/min
  Change in BP, 1st day, 5 hrs after dose: -20 mmHg
  Change in HR, 1st day, 5 hrs after dose: -25 b/min
[1]; 5 mg/kg os, 4th day
  Change in BP, 4th day, 1 hr after dose: -22 mmHg
  Change in HR, 4th day, 1 hr after dose: -35 b/min
  Change in BP, 4th day, 5 hrs after dose: -26 mmHg
  Change in HR, 4th day, 5 hrs after dose: -20 b/min
[1]; 5 mg/kg per os
  Effect on BP: lowers BP at each recording session, but its effect is more pronounced after the 4th dose
  Effectiveness compared with α-methyl-DOPA: 20 times
[1]; 1st and 5th hours after 4th administration, 5 mg/kg per os vs Hydralazine 3 mg/kg per os
  Hypotensive effect compared with Hydralazine, after 4th administration: greater hypotensive effect
[1]; 1st day, 5 mg/kg per os vs Hydralazine 3 mg/kg per os
  Activity compared with Hydralazine, 1st day: less pronounced activity than Hydralazine
[2]; 5 mg/kg os
  Change in blood pressure after treatment, 30': 0 mmHg
  Change in heart rate after treatment, 30': -20 b/min
  Change in blood pressure after treatment, 60': -3 mmHg
  Change in heart rate after treatment, 60': -20 b/min
  Change in blood pressure after treatment, 120': -15 mmHg
  Change in heart rate after treatment, 120': -35 b/min
  Change in blood pressure after treatment, 240': -18 mmHg
  Change in heart rate after treatment, 240': -15 b/min
  Change in blood pressure after treatment, 360': -10 mmHg
  Change in heart rate after treatment, 360': -20 b/min
[2]; 5 mg/kg per os
  Effectiveness compared with the reference compound (hydralazine): less effective than the reference compound
[2]
  Effect on heart rate: slight bradycardia and never tachicardia
[3]
  LD50 at 168 h: > 800 mg/kg

## CN1CC(CCC(N)=O)C2Cc3cccc4[nH]cc(c34)CC21 (stereo not drawn) [355/1226, Trans-5(10→9)abeo-6-methyl-ergoline-8β-propionamide]
[1]; 1 mg/kg os, 1st day
  Change in BP, 1st day, 1 hr after dose: -32 mmHg
  Change in HR, 1st day, 1 hr after dose: -20 b/min
  Change in BP, 1st day, 5 hrs after dose: -27 mmHg
  Change in HR, 1st day, 5 hrs after dose: +3 b/min
[1]; 1 mg/kg os, 4th day
  Change in BP, 4th day, 1 hr after dose: -21 mmHg
  Change in HR, 4th day, 1 hr after dose: -5 b/min
  Change in BP, 4th day, 5 hrs after dose: -42 mmHg
  Change in HR, 4th day, 5 hrs after dose: -13 b/min
[1]; 3 mg/kg os, 1st day
  Change in BP, 1st day, 1 hr after dose: -47 mmHg
  Change in HR, 1st day, 1 hr after dose: -20 b/min
  Change in BP, 1st day, 5 hrs after dose: -57 mmHg
  Change in HR, 1st day, 5 hrs after dose: -10 b/min
[1]; 3 mg/kg os, 4th day
  Change in BP, 4th day, 1 hr after dose: -40 mmHg
  Change in HR, 4th day, 1 hr after dose: -40 b/min
  Change in BP, 4th day, 5 hrs after dose: -42 mmHg
  Change in HR, 4th day, 5 hrs after dose: -45 b/min
[1]; 1 and 3 mg/kg per os
  Effect on BP: decreases BP; especially with the higher dose, this effect is remarkable and long lasting
[1]; 1st day, 355/1165 2 mg/kg, 355/1226 3 mg/kg per os vs Hydralazine 3 mg/kg per os
  Antihypertensive activity compared with Hydralazine, 1st day: more marked antihypertensive activity
[1]; 4th day, 355/1165 2 mg/kg, 355/1226 3 mg/kg per os vs Hydralazine 3 mg/kg per os
  Antihypertensive effect compared with Hydralazine, 4th day: even greater effect
[1]; four days, 355/1165 2 mg/kg, 355/1226 3 mg/kg, 355/1225 and 355/1229 5 mg/kg per os
  Tolerance after repeated administration: tolerance does not occur after repeated administration
[1]; 355/1165 2 mg/kg, 355/1226 3 mg/kg per os
  Activity compared with α-methyl-DOPA: 50 times
[2]; 3 mg/kg os
  Change in blood pressure after treatment, 30': -19 mmHg
  Change in heart rate after treatment, 30': -33 b/min
  Change in blood pressure after treatment, 60': -28 mmHg
  Change in heart rate after treatment, 60': -30 b/min
  Change in blood pressure after treatment, 120': -40 mmHg
  Change in heart rate after treatment, 120': -23 b/min
  Change in blood pressure after treatment, 240': -32 mmHg
  Change in heart rate after treatment, 240': -16 b/min
  Change in blood pressure after treatment, 360': -25 mmHg
  Change in heart rate after treatment, 360': +4 b/min
[2]; 3 mg/kg per os
  Hypotensive activity compared with 355/1165 and 355/1166: intermediate activity between compound 355/1165 and compound 355/1166
[2]
  Effect on heart rate: slight bradycardia and never tachicardia
[3]
  LD50 at 168 h: > 800 mg/kg
